According to US20240067693A1, “POLYPEPTIDES AND USES THEREOF” (MEDIMMUNE LIMITED, priority 2020, published 2024):
Like-named read-outs stand apart in the source and are kept apart here. Numbered stars: 1 amine (or outer) side, 2 acyl side, 3 side chain; on linkers, the order of the positions; unused ones are H or OH. Bridge positions count the residues as written; N and C are the ends. Square brackets hold non-standard residues; d marks the D form. Side chains are listed from the residue outwards. Peptide text beside a SMILES is read from it. * marks the point of attachment. C18 diacid = O=C(O)CCCCCCCCCCCCCCCCC(=O)*; γGlu = O=C(O)[C@H](CCC(=O)[*:2])N[*:1]; Aib = CC(C)(N)C(=O)O

What was measured:
[1] = target: T1, human calcitonin receptor (hCTR) (Homo sapiens, UniProt P30988); experiment: cAMP production in 1321N1 cells with stable recombinant expression of human calcitonin receptor (hCTR); assay type: cell-based
T1 construct: expressed in transfected cells
T1 sequence (P30988 25-474): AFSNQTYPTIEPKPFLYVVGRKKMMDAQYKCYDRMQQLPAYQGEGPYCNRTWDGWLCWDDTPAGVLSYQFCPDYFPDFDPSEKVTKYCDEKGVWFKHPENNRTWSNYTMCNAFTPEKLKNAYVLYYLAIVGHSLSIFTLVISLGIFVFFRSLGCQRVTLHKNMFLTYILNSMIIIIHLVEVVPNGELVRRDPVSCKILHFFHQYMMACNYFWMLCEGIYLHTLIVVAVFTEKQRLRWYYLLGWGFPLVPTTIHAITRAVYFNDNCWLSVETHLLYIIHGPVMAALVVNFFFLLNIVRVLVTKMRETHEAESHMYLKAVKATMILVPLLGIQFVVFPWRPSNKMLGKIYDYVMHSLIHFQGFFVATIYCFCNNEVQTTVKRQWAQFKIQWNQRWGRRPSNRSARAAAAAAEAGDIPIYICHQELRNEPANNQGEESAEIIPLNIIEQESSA
How it was run: (§1)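 Thawed cells in HBSS/0.1% BSA/25 mM HEPES pH 7.4 with 0.5 mM IBMX were incubated with peptides 30 min at room temperature; cAMP read by HTRF. EC50 from 4-parameter fit of % activation relative to maximal amylin or calcitonin effect.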

[2] = target: T2, human amylin receptor (calcitonin receptor co-expressed with receptor activity modifying protein, RAMP3) (hAMYR3) (Homo sapiens, UniProt O60896+P30988); experiment: cAMP production in 1321N1 cells with stable recombinant expression of human amylin receptor (hAMYR3); assay type: cell-based; conditions: for Ratio (selectivity hAMYR vs hCTR, ratio of EC50 values at the two receptors): EC50 hCTR / EC50 hAMYR3
T2 construct: expressed in transfected cells
T2 sequence (P30988 25-474): T1 sequence (P30988 25-474)
T2 sequence (O60896 24-148 partner): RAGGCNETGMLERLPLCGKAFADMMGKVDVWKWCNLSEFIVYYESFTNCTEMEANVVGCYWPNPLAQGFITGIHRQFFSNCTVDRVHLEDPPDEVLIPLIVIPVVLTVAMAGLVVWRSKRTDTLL
How it was run: as §1

[3] = cAMP, 1321N1 cells, assay buffer with 0.1% BSA, read-out: EC50 (pM) hCTR
[4] = cAMP, 1321N1 cells, assay buffer with 0.1% BSA, read-out: EC50 (pM) hAMYR3

SMILES: CC[C@H](C)[C@H](NC(=O)[C@@H]1CCCN1C(=O)CNC(=O)[C@H](Cc1ccccc1)NC(=O)[C@H](CC(N)=O)NC(=O)C(C)(C)NC(=O)[C@H](CO)NC(=O)[C@H](CO)NC(=O)[C@H](Cc1c[nH]cn1)NC(=O)[C@@H](NC(=O)[C@H](CC(C)C)NC(=O)[C@H](Cc1ccccc1)NC(=O)[C@H](CC(N)=O)NC(=O)[C@H](C)NC(=O)[C@H](CC(C)C)NC(=O)[C@H](CCCNC(=N)N)NC(=O)[C@H](CCC(N)=O)NC(=O)[C@@H](NC(=O)[C@H](C)NC(=O)[C@@H]1CSSC[C@H](NC(=O)[C@H](CCCCN)NC(=O)[C@@H](N)CCCCNC(=O)CC[C@H](NC(=O)CCCCCCCCCCCCCCCCC(=O)O)C(=O)O)C(=O)N[C@@H](CC(N)=O)C(=O)N[C@@H]([C@@H](C)O)C(=O)N[C@@H](C)C(=O)N[C@@H]([C@@H](C)O)C(=O)N1)[C@@H](C)O)C(C)C)C(=O)N[C@@H](CC(C)C)C(=O)N1CCC[C@H]1C(=O)N1CCC[C@H]1C(=O)N[C@H](C(=O)N[C@@H](CC(N)=O)C(=O)N[C@H](C(=O)NCC(=O)N[C@@H](CO)C(=O)N[C@@H](CC(N)=O)C(=O)N[C@H](C(=O)NC(C)(C)C(N)=O)[C@@H](C)O)C(C)C)[C@@H](C)O [Peptide 85, K(γE-C18diacid)K[CNTATC]ATQRLANFLVHSS(Aib)NFGPILPPTNVGSNT(Aib)-amide] (H-K([γGlu-C18 diacid])KCNTATCATQRLANFLVHSS[Aib]NFGPILPPTNVGSNT[Aib]-NH2; disulfide 3-8; N-terminus assumed)
- EC50 [1, 3]: 3100 pM
- Ratio (selectivity hAMYR vs hCTR, ratio of EC50 values at the two receptors) [2]: 4
- EC50 [2, 4]: 806 pM

SMILES: CC[C@H](C)[C@H](NC(=O)[C@@H]1CCCN1C(=O)CNC(=O)[C@H](Cc1ccccc1)NC(=O)[C@H](CC(N)=O)NC(=O)C(C)(C)NC(=O)[C@H](CO)NC(=O)[C@H](CO)NC(=O)[C@H](Cc1c[nH]cn1)NC(=O)C(C)(C)NC(=O)[C@H](CC(C)C)NC(=O)[C@H](Cc1ccccc1)NC(=O)[C@H](Cc1c[nH]cn1)NC(=O)[C@H](C)NC(=O)[C@H](CC(C)C)NC(=O)[C@H](CCCNC(=N)N)NC(=O)[C@H](CCC(N)=O)NC(=O)[C@@H](NC(=O)[C@H](C)NC(=O)[C@@H]1CSSC[C@H](NC(=O)[C@H](CCCCN)NC(=O)[C@@H](N)CCCCNC(=O)CC[C@H](NC(=O)CCCCCCCCCCCCCCCCC(=O)O)C(=O)O)C(=O)N[C@@H](CC(N)=O)C(=O)N[C@@H]([C@@H](C)O)C(=O)N[C@@H](C)C(=O)N[C@@H]([C@@H](C)O)C(=O)N1)[C@@H](C)O)C(=O)N[C@@H](CC(C)C)C(=O)N1CCC[C@H]1C(=O)N1CCC[C@H]1C(=O)N[C@H](C(=O)N[C@@H](CCC(=O)O)C(=O)N[C@H](C(=O)NCC(=O)N[C@@H](CO)C(=O)N[C@@H](CC(N)=O)C(=O)N[C@H](C(=O)N[C@@H](Cc1ccc(O)cc1)C(N)=O)[C@@H](C)O)C(C)C)[C@@H](C)O [Peptide 86, K(γE-C18diacid)K[CNTATC]ATQRLAHFL(Aib)HSS(Aib)NFGPILPPTEVGSNTY-amide] (H-K([γGlu-C18 diacid])KCNTATCATQRLAHFL[Aib]HSS[Aib]NFGPILPPTEVGSNTY-NH2; disulfide 3-8)
- EC50 [1, 3]: 311 pM
- Ratio (selectivity hAMYR vs hCTR, ratio of EC50 values at the two receptors) [2]: 3
- EC50 [2, 4]: 119 pM

SMILES: CC[C@H](C)[C@H](NC(=O)[C@@H]1CCCN1C(=O)CNC(=O)[C@H](Cc1ccccc1)NC(=O)[C@H](CC(N)=O)NC(=O)C(C)(C)NC(=O)[C@H](CO)NC(=O)[C@H](CO)NC(=O)[C@H](Cc1c[nH]cn1)NC(=O)C(C)(C)NC(=O)[C@H](CC(C)C)NC(=O)[C@H](Cc1ccccc1)NC(=O)[C@H](CC(N)=O)NC(=O)[C@H](C)NC(=O)[C@H](CC(C)C)NC(=O)[C@H](CCCNC(=N)N)NC(=O)[C@H](CCC(N)=O)NC(=O)[C@@H](NC(=O)[C@H](C)NC(=O)[C@@H]1CSSC[C@H](NC(=O)[C@H](CCCCN)NC(=O)[C@@H](N)CCCCNC(=O)CC[C@H](NC(=O)CCCCCCCCCCCCCCCCC(=O)O)C(=O)O)C(=O)N[C@@H](CC(N)=O)C(=O)N[C@@H]([C@@H](C)O)C(=O)N[C@@H](C)C(=O)N[C@@H]([C@@H](C)O)C(=O)N1)[C@@H](C)O)C(=O)N[C@@H](CC(C)C)C(=O)N1CCC[C@H]1C(=O)N1CCC[C@H]1C(=O)N[C@H](C(=O)N[C@@H](CC(N)=O)C(=O)N[C@H](C(=O)NCC(=O)N[C@@H](CO)C(=O)N[C@@H](CC(N)=O)C(=O)N[C@H](C(=O)N1CCC[C@H]1C(N)=O)[C@@H](C)O)C(C)C)[C@@H](C)O [Peptide 87, K(γE-C18diacid)K[CNTATC]ATQRLANFL(Aib)HSS(Aib)NFGPILPPTNVGSNTP-amide] (H-K([γGlu-C18 diacid])KCNTATCATQRLANFL[Aib]HSS[Aib]NFGPILPPTNVGSNTP-NH2; disulfide 3-8; N-terminus assumed)
- EC50 [1, 3]: 74 pM
- Ratio (selectivity hAMYR vs hCTR, ratio of EC50 values at the two receptors) [2]: 1
- EC50 [2, 4]: 71 pM

SMILES: CC[C@H](C)[C@H](NC(=O)[C@@H]1CCCN1C(=O)CNC(=O)[C@H](Cc1ccccc1)NC(=O)[C@H](CC(N)=O)NC(=O)C(C)(C)NC(=O)[C@H](CO)NC(=O)[C@H](CO)NC(=O)[C@H](Cc1c[nH]cn1)NC(=O)[C@@H](NC(=O)[C@H](CC(C)C)NC(=O)[C@H](Cc1ccccc1)NC(=O)[C@H](CC(N)=O)NC(=O)[C@H](C)NC(=O)[C@H](CC(C)C)NC(=O)[C@H](CCCNC(=N)N)NC(=O)[C@H](CCC(N)=O)NC(=O)[C@@H](NC(=O)[C@H](C)NC(=O)[C@@H]1CSSC[C@H](NC(=O)[C@H](CCCCN)NC(=O)[C@@H](N)CCCCNC(=O)CC[C@H](NC(=O)CCCCCCCCCCCCCCCCC(=O)O)C(=O)O)C(=O)N[C@@H](CC(N)=O)C(=O)N[C@@H]([C@@H](C)O)C(=O)N[C@@H](C)C(=O)N[C@@H]([C@@H](C)O)C(=O)N1)[C@@H](C)O)C(C)C)C(=O)N[C@@H](CC(C)C)C(=O)NC(C)(C)C(=O)N1CCC[C@H]1C(=O)N[C@H](C(=O)N[C@@H](CC(N)=O)C(=O)N[C@H](C(=O)NCC(=O)N[C@@H](CO)C(=O)N[C@@H](CC(N)=O)C(=O)N[C@H](C(=O)N[C@@H](Cc1ccc(O)cc1)C(N)=O)[C@@H](C)O)C(C)C)[C@@H](C)O [Peptide 88, K(γE-C18diacid)K[CNTATC]ATQRLANFLVHSS(Aib)NFGPIL(Aib)PTNVGSNTY-amide] (H-K([γGlu-C18 diacid])KCNTATCATQRLANFLVHSS[Aib]NFGPIL[Aib]PTNVGSNTY-NH2; disulfide 3-8; N-terminus assumed)
- EC50 [1, 3]: 1170 pM
- Ratio (selectivity hAMYR vs hCTR, ratio of EC50 values at the two receptors) [2]: 4
- EC50 [2, 4]: 281 pM

SMILES: CC[C@H](C)[C@H](NC(=O)[C@@H]1CCCN1C(=O)CNC(=O)[C@H](Cc1ccccc1)NC(=O)[C@H](CC(N)=O)NC(=O)C(C)(C)NC(=O)[C@H](CO)NC(=O)[C@H](CO)NC(=O)[C@H](Cc1c[nH]cn1)NC(=O)[C@@H](NC(=O)[C@H](CC(C)C)NC(=O)[C@H](Cc1ccccc1)NC(=O)[C@H](CC(N)=O)NC(=O)[C@H](C)NC(=O)[C@H](CC(C)C)NC(=O)[C@H](CCCNC(=N)N)NC(=O)[C@H](CCC(N)=O)NC(=O)[C@@H](NC(=O)[C@H](C)NC(=O)[C@@H]1CSSC[C@H](NC(=O)[C@@H](N)CCCCNC(=O)CC[C@H](NC(=O)CC[C@H](NC(=O)CCCCCCCCCCCCCCCCC(=O)O)C(=O)O)C(=O)O)C(=O)N[C@@H](CC(N)=O)C(=O)N[C@@H]([C@@H](C)O)C(=O)N[C@@H](C)C(=O)N[C@@H]([C@@H](C)O)C(=O)N1)[C@@H](C)O)C(C)C)C(=O)N[C@@H](CC(C)C)C(=O)N1CCC[C@H]1C(=O)N1CCC[C@H]1C(=O)N[C@H](C(=O)NC(C)(C)C(=O)N[C@H](C(=O)NCC(=O)N[C@@H](CO)C(=O)N[C@@H](CC(N)=O)C(=O)N[C@H](C(=O)N[C@@H](Cc1ccc(O)cc1)C(N)=O)[C@@H](C)O)C(C)C)[C@@H](C)O [Peptide 89, K(γE-γE-C18diacid)[CNTATCJATQRLANFLVHSS(Aib)NFGPILPPT(Aib)VGSNTY-amide] (H-K([γGlu-γGlu-C18 diacid])CNTATCATQRLANFLVHSS[Aib]NFGPILPPT[Aib]VGSNTY-NH2; disulfide 2-7; N-terminus assumed)
- EC50 [1]: 8240 pM
- EC50 [2]: 447 pM
